Experimental data published in PMC3197762 (Nature chemical biology, 2011).

Legend:
[1] = test system: HTLA cells not expressing a Tango receptor; test: Tango negative control, cells transfected with pEYFP-N1; type: cell-based, human
human V2 Tango receptor = human V2 Tango receptor (Homo sapiens, UniProt P30518); test: Tango control, human V2 Tango receptor; type: cell-based; conditions: data not shown

| Structure (SMILES) | activity on HTLA cells not expressing a Tango receptor [1] | effect on HTLA cells expressing the human V2 Tango receptor (human V2 Tango receptor) |
| --- | --- | --- |
| CN(C)CCCN1c2ccccc2Sc2ccc(Cl)cc21 [Chlorpromazine] | inactive | no effect |
| CCCN1CCC[C@@H]2Cc3n[nH]cc3C[C@H]21 [Quinpirole] | inactive | no effect |
